{
  "source": "patent US5730986A",
  "about": "(priority 1995, dated 1998)",
  "origin": "cited, not measured here",
  "key": {"[1]": {"conditions": "in vivo"}, "pepsinogen": {"system": "pepsinogen", "conditions": "rat stomach"}},
  "data": [
    {"smiles": "[Mg+2].[OH-].[OH-]", "note": "[Mg(OH)2]", "values": [
      {"measurement": "adverse reactions", "setting": "[1]", "result": "loose stools or diarrhea"}
    ]},
    {"smiles": "COc1ccc2[nH]c([S+]([O-])Cc3ncc(C)c(OC)c3C)nc2c1", "note": "(stereo not drawn) [omeprazole]", "values": [
      {"measurement": "secretion, synthesis and gene expression of pepsinogen", "setting": "pepsinogen", "result": "reduces the secretion, synthesis and gene expression of pepsinogen"}
    ]},
    {"smiles": "CN/C(=N/CCSCc1nc[nH]c1C)NC#N", "note": "[cimetidine]", "values": [
      {"measurement": "inhibition of cytochrome P450-catalyzed drug oxidation and hydroxylation of estradiol", "setting": "cytochrome P450", "result": "inhibits cytochrome P450 -catalyzed drug oxidation and hydroxylation of estradiol"}
    ]},
    {"smiles": "C/C=C(\\C)C(=O)O[C@H]1C[C@@H](OC(C)=O)[C@@]2(C(=O)OC)CO[C@H]3[C@@H](O)[C@@](C)([C@]45O[C@@]4(C)[C@H]4C[C@@H]5O[C@@H]5OC=C[C@@]54O)[C@H]4[C@]1(CO[C@]4(O)C(=O)OC)[C@@H]32", "note": "[Azadirachtin]", "values": [
      {"measurement": "inhibition of the development of malarial parasites", "setting": "malarial parasites", "result": "inhibitory to the development of malarial parasites"},
      {"measurement": "activity against larva", "setting": "larva of P. xylostella L", "result": "active against larva of P. xylostella L"},
      {"measurement": "pesticide properties", "setting": "insects", "result": "phagorepellent, antifeadent and systemic growth disruptor properties in insects"}
    ]}
  ]
}
